Where two headings read alike, the source gives them in different places.
What was measured:
NCI-60 cell line panel = tested on: NCI-60 cell line panel; parameters: key: Sensitive; Resistant; settings: cited from earlier work
[1] = tested on: breast cancer, advanced ovarian cancer; settings: responders/patients, cited from earlier work
[2] = tested on: breast cancer, advanced ovarian cancer; experiment: Clinical response to single agent chemotherapy in patients (breast neoadjuvant docetaxel; ovarian salvage docetaxel, topotecan, taxol; adriamycin treated patients); type: in vivo, human; settings: Ovarian tumor data set; responders/patients
Text: The development of a gene expression signature capable of predicting in vitro docetaxel sensitivity provides a tool that might be useful in predicting response to the drug in patients. We made use of published studies with clinical and genomic data that linked gene expression data with clinical response to docetaxel in a breast cancer neoadjuvant study^50 (FIG. 1D) to test the capacity of the in vitro docetaxel sensitivity predictor to accurately identify those patients that responded to docetaxel. […] We extended this further by predicting the response to docetaxel as salvage therapy for ovarian cancer.
Given the ability of the in vitro developed gene expression profiles to predict response to docetaxel in the clinical samples, we extended this approach to test the ability of additional signatures to predict response to commonly used salvage therapies for ovarian cancer and an independent data set of samples from adriamycin treated patients (Evans W, GSE650, GSE651). […] In each case, the positive and negative predictive values confirm the validity and clinical utility of the approach (Table 16).
Full details of the methods used for RNA extraction and development of gene expression signatures representing deregulation of oncogenic pathways in the tumor samples were recently described.^36 Response to therapy was evaluated using standard criteria for patients with measurable disease, based upon WHO guidelines.^28

O=c1[nH]cc(F)c(=O)[nH]1 [5-FU, 5-fluorouracil]
Resistant or Sensitive (Res or Sen) (NCI-60 cell line panel; A498, Renal): Sen | Resistant or Sensitive (Res or Sen) (NCI-60 cell line panel; COLO 205, Colon): Sen | Resistant or Sensitive (Res or Sen) (NCI-60 cell line panel; EKVX, Non-Small Cell Lung): Res | Resistant or Sensitive (Res or Sen) (NCI-60 cell line panel; HCT-116, Colon): Sen | Resistant or Sensitive (Res or Sen) (NCI-60 cell line panel; LOX IMVI, Melanoma): Sen | Resistant or Sensitive (Res or Sen) (NCI-60 cell line panel; M14, Melanoma): Res | Resistant or Sensitive (Res or Sen) (NCI-60 cell line panel; MCF7, Breast): Sen | Resistant or Sensitive (Res or Sen) (NCI-60 cell line panel; MDA-MB-435, Melanoma): Res | Resistant or Sensitive (Res or Sen) (NCI-60 cell line panel; NCI-H460, Non-Small Cell Lung): Sen | Resistant or Sensitive (Res or Sen) (NCI-60 cell line panel; NCI/ADR-RES, Ovarian): Res | Resistant or Sensitive (Res or Sen) (NCI-60 cell line panel; OVCAR-8, Ovarian): Res | Resistant or Sensitive (Res or Sen) (NCI-60 cell line panel; SK-MEL-5, Melanoma): Sen | Resistant or Sensitive (Res or Sen) (NCI-60 cell line panel; SN12C, Renal): Res | Resistant or Sensitive (Res or Sen) (NCI-60 cell line panel; SW-620, Colon): Res | Resistant or Sensitive (Res or Sen) (NCI-60 cell line panel; UO-31, Renal): Sen

COc1cccc2c1C(=O)c1c(O)c3c(c(O)c1C2=O)C[C@@](O)(C(=O)CO)C[C@@H]3O[C@H]1C[C@H](N)[C@H](O)[C@H](C)O1 [adriamycin]
Actual Overall Response ([1]; Evans et al. patient data set): 24/122 (19.6%)

CC(=O)O[C@@]12CO[C@@H]1C[C@H](O)[C@@]1(C)C(=O)[C@H](O)C3=C(C)[C@@H](OC(=O)[C@H](O)[C@@H](NC(=O)OC(C)(C)C)c4ccccc4)C[C@@](O)([C@@H](OC(=O)c4ccccc4)[C@H]21)C3(C)C [docetaxel]
Actual Overall Response ([1]; Breast Tumor Data, neoadjuvant (Chang et al.)): 13/24 (54.1%) | Actual Overall Response [2]: 7/14 (50%)

CC(=O)O[C@H]1C(=O)[C@@]2(C)[C@H]([C@H](OC(=O)c3ccccc3)[C@]3(O)C[C@H](OC(=O)[C@H](O)[C@@H](NC(=O)c4ccccc4)c4ccccc4)C(C)=C1C3(C)C)[C@]1(OC(C)=O)CO[C@@H]1C[C@@H]2O [taxol, paclitaxel]
Actual Overall Response [2]: 20/35 (57.1%)

CC[C@@]1(O)C(=O)OCc2c1cc1n(c2=O)Cc2cc3c(CN(C)C)c(O)ccc3nc2-1 [topotecan]
Actual Overall Response [2]: 20/48 (41.6%)

— patent US20100279957A1, “PREDICTING RESPONSIVENESS TO CANCER THERAPEUTICS” (priority 2007, published 2010)
